# Measurements published in the kinase profiling compilation of Christmann-Franck et al. (2016).
# Biological target: MAP2K2 (human) (UniProt P36507)
# Test: radiometric filter-binding kinase assay, Kinase HotSpot
# Conditions: compound 0.5 µM; ATP 10 µM
row,SMILES,residual activity
1,O=C(NC(NC(=S)Nc1ccc(F)c([N+](=O)[O-])c1)C(Cl)(Cl)Cl)C(c1ccccc1)c1ccccc1 (stereo not given),82.3%
2,CS(=O)c1ccc(-c2nc(-c3ccc(F)cc3)c(-c3ccncc3)[nH]2)cc1 (stereo not given),99.9%

# Biological target: MAPK12 (human) (UniProt P53778)
# Test: as above
# Conditions: compound 0.5 µM; ATP 10 µM
row,SMILES,residual activity
1,O=C1Nc2cc(Br)ccc2/C1=C1/Nc2ccccc2/C1=N\O,93.8%
2,CC(C)(C)c1nc2c3ccc(F)cc3c3c(=O)[nH]ccc3c2[nH]1,97.9%
3,CS(=O)c1ccc(-c2nc(-c3ccc(F)cc3)c(-c3ccncc3)[nH]2)cc1 (stereo not given),105%

# Biological target: MAPK9 (human) (UniProt P45984)
# Test: as above
# Conditions: compound 0.5 µM; ATP 10 µM
# MAPK9 (human), sequence (P45984 whole entry, looked up): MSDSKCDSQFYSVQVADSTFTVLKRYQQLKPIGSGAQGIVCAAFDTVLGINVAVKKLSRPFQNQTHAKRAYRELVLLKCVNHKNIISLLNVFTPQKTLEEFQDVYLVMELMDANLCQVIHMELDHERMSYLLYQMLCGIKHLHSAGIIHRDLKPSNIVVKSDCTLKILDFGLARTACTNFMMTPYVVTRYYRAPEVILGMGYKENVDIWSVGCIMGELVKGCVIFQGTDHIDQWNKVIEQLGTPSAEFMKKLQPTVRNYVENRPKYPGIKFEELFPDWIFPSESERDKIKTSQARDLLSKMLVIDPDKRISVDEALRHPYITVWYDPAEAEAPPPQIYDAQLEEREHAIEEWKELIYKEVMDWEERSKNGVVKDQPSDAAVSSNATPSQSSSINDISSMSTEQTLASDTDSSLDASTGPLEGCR
row,SMILES,residual activity
1,CSc1nc(-c2ccc(F)cc2)c(-c2ccnc(NC(C)c3ccccc3)c2)[nH]1 (stereo not given),31.1%
2,O=C1Nc2cc(Br)ccc2/C1=C1/Nc2ccccc2/C1=N\O,80.3%
3,CC(C)(C)c1nc2c3ccc(F)cc3c3c(=O)[nH]ccc3c2[nH]1,31.1%
4,O=C(NC(NC(=S)Nc1ccc(F)c([N+](=O)[O-])c1)C(Cl)(Cl)Cl)C(c1ccccc1)c1ccccc1 (stereo not given),88.6%
5,CS(=O)c1ccc(-c2nc(-c3ccc(F)cc3)c(-c3ccncc3)[nH]2)cc1 (stereo not given),100%

# Biological target: MAPKAPK2 (human) (UniProt P49137)
# Test: as above
# Conditions: compound 0.5 µM; ATP 10 µM
row,SMILES,residual activity
1,CSc1nc(-c2ccc(F)cc2)c(-c2ccnc(NC(C)c3ccccc3)c2)[nH]1 (stereo not given),106%
2,O=C1Nc2cc(Br)ccc2/C1=C1/Nc2ccccc2/C1=N\O,86.9%
3,CC(C)(C)c1nc2c3ccc(F)cc3c3c(=O)[nH]ccc3c2[nH]1,99.6%
4,O=C(NC(NC(=S)Nc1ccc(F)c([N+](=O)[O-])c1)C(Cl)(Cl)Cl)C(c1ccccc1)c1ccccc1 (stereo not given),96.3%

# Biological target: MET (human) (UniProt P08581)
# Test: as above
# Conditions: compound 0.5 µM; ATP 10 µM
# MET (human), sequence (P08581 whole entry, looked up): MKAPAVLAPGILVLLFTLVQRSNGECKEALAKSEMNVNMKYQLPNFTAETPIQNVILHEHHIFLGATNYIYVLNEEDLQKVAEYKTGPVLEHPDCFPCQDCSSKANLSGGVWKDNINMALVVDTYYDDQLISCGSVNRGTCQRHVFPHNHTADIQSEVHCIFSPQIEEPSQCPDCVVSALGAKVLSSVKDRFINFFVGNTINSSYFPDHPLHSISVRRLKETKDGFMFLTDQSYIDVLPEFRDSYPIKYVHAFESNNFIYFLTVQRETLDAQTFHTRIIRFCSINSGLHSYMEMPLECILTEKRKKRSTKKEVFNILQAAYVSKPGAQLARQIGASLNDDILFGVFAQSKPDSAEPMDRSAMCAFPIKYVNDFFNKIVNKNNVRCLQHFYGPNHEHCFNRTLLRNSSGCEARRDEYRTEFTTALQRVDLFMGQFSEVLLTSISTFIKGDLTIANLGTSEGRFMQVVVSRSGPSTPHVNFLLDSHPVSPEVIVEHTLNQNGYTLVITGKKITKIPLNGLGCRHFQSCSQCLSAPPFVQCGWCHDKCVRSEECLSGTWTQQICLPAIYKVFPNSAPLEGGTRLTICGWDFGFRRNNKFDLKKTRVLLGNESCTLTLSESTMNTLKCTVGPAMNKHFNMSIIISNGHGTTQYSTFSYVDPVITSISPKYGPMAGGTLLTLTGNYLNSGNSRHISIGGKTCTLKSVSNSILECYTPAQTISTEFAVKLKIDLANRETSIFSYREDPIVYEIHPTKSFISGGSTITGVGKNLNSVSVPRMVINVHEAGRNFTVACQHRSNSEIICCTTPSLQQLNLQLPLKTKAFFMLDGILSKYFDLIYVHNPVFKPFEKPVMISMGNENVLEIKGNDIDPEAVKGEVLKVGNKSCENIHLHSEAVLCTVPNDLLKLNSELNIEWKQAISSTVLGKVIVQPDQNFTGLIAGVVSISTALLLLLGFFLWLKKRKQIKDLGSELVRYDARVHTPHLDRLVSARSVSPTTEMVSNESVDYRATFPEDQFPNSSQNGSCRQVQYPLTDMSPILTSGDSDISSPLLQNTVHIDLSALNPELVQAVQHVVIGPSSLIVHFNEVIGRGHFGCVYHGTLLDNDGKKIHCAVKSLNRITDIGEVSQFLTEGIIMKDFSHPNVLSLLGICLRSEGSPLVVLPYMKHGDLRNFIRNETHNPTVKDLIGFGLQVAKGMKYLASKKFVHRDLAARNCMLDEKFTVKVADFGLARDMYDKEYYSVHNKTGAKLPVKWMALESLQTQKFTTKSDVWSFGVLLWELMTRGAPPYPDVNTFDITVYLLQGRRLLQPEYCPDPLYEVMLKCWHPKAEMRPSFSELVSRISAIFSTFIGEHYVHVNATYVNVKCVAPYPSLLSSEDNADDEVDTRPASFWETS
row,SMILES,residual activity
1,CSc1nc(-c2ccc(F)cc2)c(-c2ccnc(NC(C)c3ccccc3)c2)[nH]1 (stereo not given),116%
2,O=C1Nc2cc(Br)ccc2/C1=C1/Nc2ccccc2/C1=N\O,70%
3,O=C(NC(NC(=S)Nc1ccc(F)c([N+](=O)[O-])c1)C(Cl)(Cl)Cl)C(c1ccccc1)c1ccccc1 (stereo not given),101%
4,CS(=O)c1ccc(-c2nc(-c3ccc(F)cc3)c(-c3ccncc3)[nH]2)cc1 (stereo not given),103%

# Biological target: MST1R (human) (UniProt Q04912)
# Test: as above
# Conditions: compound 0.5 µM; ATP 10 µM
row,SMILES,residual activity
1,CSc1nc(-c2ccc(F)cc2)c(-c2ccnc(NC(C)c3ccccc3)c2)[nH]1 (stereo not given),81.3%
2,O=C1Nc2cc(Br)ccc2/C1=C1/Nc2ccccc2/C1=N\O,98.7%
3,CC(C)(C)c1nc2c3ccc(F)cc3c3c(=O)[nH]ccc3c2[nH]1,103%
4,O=C(NC(NC(=S)Nc1ccc(F)c([N+](=O)[O-])c1)C(Cl)(Cl)Cl)C(c1ccccc1)c1ccccc1 (stereo not given),102%
5,CS(=O)c1ccc(-c2nc(-c3ccc(F)cc3)c(-c3ccncc3)[nH]2)cc1 (stereo not given),101%

# Biological target: NEK2 (human) (UniProt P51955)
# Test: as above
# Conditions: compound 0.5 µM; ATP 10 µM
# NEK2 (human), sequence (P51955 whole entry, looked up): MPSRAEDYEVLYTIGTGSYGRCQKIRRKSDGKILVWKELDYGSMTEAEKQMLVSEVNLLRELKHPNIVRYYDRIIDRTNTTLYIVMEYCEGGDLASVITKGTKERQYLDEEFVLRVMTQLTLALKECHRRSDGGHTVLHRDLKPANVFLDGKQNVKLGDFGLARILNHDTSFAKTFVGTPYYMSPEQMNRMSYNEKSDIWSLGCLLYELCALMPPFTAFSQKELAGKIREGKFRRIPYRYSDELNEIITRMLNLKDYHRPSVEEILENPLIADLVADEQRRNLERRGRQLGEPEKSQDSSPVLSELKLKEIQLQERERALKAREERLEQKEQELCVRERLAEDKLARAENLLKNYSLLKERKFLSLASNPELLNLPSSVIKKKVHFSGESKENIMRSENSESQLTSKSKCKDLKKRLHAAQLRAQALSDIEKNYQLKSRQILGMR
row,SMILES,residual activity
1,CSc1nc(-c2ccc(F)cc2)c(-c2ccnc(NC(C)c3ccccc3)c2)[nH]1 (stereo not given),89.9%
2,O=C1Nc2cc(Br)ccc2/C1=C1/Nc2ccccc2/C1=N\O,95.5%
3,O=C(NC(NC(=S)Nc1ccc(F)c([N+](=O)[O-])c1)C(Cl)(Cl)Cl)C(c1ccccc1)c1ccccc1 (stereo not given),112%
4,CS(=O)c1ccc(-c2nc(-c3ccc(F)cc3)c(-c3ccncc3)[nH]2)cc1 (stereo not given),105%

# Biological target: NEK6 (human) (UniProt Q9HC98)
# Test: as above
# Conditions: compound 0.5 µM; ATP 10 µM
# NEK6 (human), sequence (Q9HC98 whole entry, looked up): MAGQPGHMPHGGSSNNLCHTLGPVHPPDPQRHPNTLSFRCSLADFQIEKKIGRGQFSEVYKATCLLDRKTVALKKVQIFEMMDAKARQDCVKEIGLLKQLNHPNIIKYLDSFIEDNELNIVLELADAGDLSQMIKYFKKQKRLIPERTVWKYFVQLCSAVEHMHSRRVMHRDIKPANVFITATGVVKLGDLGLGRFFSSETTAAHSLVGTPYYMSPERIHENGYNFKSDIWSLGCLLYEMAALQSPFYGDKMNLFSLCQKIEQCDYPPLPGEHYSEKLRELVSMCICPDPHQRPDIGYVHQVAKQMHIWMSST
row,SMILES,residual activity
1,CSc1nc(-c2ccc(F)cc2)c(-c2ccnc(NC(C)c3ccccc3)c2)[nH]1 (stereo not given),106%
2,O=C1Nc2cc(Br)ccc2/C1=C1/Nc2ccccc2/C1=N\O,99.9%
3,CC(C)(C)c1nc2c3ccc(F)cc3c3c(=O)[nH]ccc3c2[nH]1,82.5%
4,O=C(NC(NC(=S)Nc1ccc(F)c([N+](=O)[O-])c1)C(Cl)(Cl)Cl)C(c1ccccc1)c1ccccc1 (stereo not given),109%
5,CS(=O)c1ccc(-c2nc(-c3ccc(F)cc3)c(-c3ccncc3)[nH]2)cc1 (stereo not given),103%

# Biological target: NTRK2 (human) (UniProt Q16620)
# Test: as above
# Conditions: compound 0.5 µM; ATP 10 µM
# NTRK2 (human), sequence (Q16620 whole entry, looked up): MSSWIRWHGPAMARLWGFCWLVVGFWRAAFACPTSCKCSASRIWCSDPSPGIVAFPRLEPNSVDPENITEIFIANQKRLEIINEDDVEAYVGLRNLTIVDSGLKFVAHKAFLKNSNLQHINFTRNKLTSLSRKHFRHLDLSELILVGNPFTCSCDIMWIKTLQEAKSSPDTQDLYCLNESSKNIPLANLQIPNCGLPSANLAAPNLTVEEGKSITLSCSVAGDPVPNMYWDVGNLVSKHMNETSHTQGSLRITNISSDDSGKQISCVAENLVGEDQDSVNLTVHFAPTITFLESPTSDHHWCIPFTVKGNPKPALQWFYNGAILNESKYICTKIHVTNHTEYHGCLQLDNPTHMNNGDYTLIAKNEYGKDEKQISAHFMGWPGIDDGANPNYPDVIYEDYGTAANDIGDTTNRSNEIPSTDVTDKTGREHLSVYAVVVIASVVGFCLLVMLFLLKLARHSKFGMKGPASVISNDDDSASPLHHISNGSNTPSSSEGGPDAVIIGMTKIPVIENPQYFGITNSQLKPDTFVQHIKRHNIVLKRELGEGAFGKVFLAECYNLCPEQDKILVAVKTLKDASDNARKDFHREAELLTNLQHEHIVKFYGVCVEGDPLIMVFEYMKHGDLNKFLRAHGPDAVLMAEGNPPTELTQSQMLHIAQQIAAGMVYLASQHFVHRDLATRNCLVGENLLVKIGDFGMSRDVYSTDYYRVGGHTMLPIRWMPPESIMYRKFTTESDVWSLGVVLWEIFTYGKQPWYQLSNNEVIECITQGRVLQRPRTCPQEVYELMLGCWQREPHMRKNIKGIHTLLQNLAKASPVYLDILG
row,SMILES,residual activity
1,CSc1nc(-c2ccc(F)cc2)c(-c2ccnc(NC(C)c3ccccc3)c2)[nH]1 (stereo not given),88.5%
2,O=C1Nc2cc(Br)ccc2/C1=C1/Nc2ccccc2/C1=N\O,10.3%
3,CC(C)(C)c1nc2c3ccc(F)cc3c3c(=O)[nH]ccc3c2[nH]1,16.1%
4,O=C(NC(NC(=S)Nc1ccc(F)c([N+](=O)[O-])c1)C(Cl)(Cl)Cl)C(c1ccccc1)c1ccccc1 (stereo not given),97.7%
5,CS(=O)c1ccc(-c2nc(-c3ccc(F)cc3)c(-c3ccncc3)[nH]2)cc1 (stereo not given),104%

# Biological target: NTRK3 (human) (UniProt Q16288)
# Test: as above
# Conditions: compound 0.5 µM; ATP 10 µM
# NTRK3 (human), sequence (Q16288 whole entry, looked up): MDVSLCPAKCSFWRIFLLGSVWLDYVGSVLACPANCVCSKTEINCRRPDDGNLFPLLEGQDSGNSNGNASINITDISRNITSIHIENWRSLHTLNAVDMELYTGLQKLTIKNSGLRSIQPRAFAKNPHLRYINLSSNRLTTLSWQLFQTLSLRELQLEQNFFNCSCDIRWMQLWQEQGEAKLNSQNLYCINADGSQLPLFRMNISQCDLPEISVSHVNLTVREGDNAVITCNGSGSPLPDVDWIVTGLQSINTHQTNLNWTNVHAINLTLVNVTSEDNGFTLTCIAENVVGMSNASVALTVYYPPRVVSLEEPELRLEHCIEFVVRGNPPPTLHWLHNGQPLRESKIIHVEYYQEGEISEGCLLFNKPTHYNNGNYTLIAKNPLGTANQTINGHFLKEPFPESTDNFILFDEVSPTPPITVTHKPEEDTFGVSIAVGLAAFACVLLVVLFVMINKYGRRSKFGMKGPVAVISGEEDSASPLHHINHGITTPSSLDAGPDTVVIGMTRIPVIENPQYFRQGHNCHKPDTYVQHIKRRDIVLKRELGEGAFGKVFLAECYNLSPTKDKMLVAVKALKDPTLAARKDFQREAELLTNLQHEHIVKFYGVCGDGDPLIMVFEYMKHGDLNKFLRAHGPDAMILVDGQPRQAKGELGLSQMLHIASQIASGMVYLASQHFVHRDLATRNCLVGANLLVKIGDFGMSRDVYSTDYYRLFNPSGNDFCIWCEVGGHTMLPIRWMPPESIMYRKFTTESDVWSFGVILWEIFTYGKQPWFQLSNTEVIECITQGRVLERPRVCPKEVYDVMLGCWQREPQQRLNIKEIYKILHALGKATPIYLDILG
row,SMILES,residual activity
1,CSc1nc(-c2ccc(F)cc2)c(-c2ccnc(NC(C)c3ccccc3)c2)[nH]1 (stereo not given),93.6%
2,O=C1Nc2cc(Br)ccc2/C1=C1/Nc2ccccc2/C1=N\O,4.98%
3,CC(C)(C)c1nc2c3ccc(F)cc3c3c(=O)[nH]ccc3c2[nH]1,6.81%
4,O=C(NC(NC(=S)Nc1ccc(F)c([N+](=O)[O-])c1)C(Cl)(Cl)Cl)C(c1ccccc1)c1ccccc1 (stereo not given),108%
5,CS(=O)c1ccc(-c2nc(-c3ccc(F)cc3)c(-c3ccncc3)[nH]2)cc1 (stereo not given),98%

# Biological target: PAK2 (human) (UniProt Q13177)
# Test: as above
# Conditions: compound 0.5 µM; ATP 10 µM
row,SMILES,residual activity
1,CSc1nc(-c2ccc(F)cc2)c(-c2ccnc(NC(C)c3ccccc3)c2)[nH]1 (stereo not given),104%
2,O=C1Nc2cc(Br)ccc2/C1=C1/Nc2ccccc2/C1=N\O,90.9%
3,CC(C)(C)c1nc2c3ccc(F)cc3c3c(=O)[nH]ccc3c2[nH]1,88.8%
4,O=C(NC(NC(=S)Nc1ccc(F)c([N+](=O)[O-])c1)C(Cl)(Cl)Cl)C(c1ccccc1)c1ccccc1 (stereo not given),100%
5,CS(=O)c1ccc(-c2nc(-c3ccc(F)cc3)c(-c3ccncc3)[nH]2)cc1 (stereo not given),78%

# Biological target: PAK3 (human) (UniProt O75914)
# Test: as above
# Conditions: compound 0.5 µM; ATP 10 µM
# PAK3 (human), sequence (O75914 whole entry, looked up): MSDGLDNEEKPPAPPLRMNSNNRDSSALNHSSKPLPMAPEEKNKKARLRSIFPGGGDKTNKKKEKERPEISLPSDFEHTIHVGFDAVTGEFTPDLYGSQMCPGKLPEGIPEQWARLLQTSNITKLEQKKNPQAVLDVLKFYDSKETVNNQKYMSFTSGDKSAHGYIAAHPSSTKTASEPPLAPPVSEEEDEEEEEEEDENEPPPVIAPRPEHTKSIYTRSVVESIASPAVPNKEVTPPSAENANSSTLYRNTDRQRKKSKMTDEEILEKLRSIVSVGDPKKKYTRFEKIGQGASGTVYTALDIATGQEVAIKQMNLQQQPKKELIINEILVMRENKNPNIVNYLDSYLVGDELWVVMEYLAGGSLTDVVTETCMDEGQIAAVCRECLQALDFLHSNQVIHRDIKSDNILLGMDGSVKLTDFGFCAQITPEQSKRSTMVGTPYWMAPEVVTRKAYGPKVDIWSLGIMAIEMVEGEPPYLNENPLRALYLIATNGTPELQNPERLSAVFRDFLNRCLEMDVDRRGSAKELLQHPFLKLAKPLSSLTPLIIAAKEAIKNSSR
row,SMILES,residual activity
1,CSc1nc(-c2ccc(F)cc2)c(-c2ccnc(NC(C)c3ccccc3)c2)[nH]1 (stereo not given),94.5%
2,O=C1Nc2cc(Br)ccc2/C1=C1/Nc2ccccc2/C1=N\O,99.7%
3,CC(C)(C)c1nc2c3ccc(F)cc3c3c(=O)[nH]ccc3c2[nH]1,90.1%
